Laboratory results reported in patent US8916567B2, “Certain crystalline hydrates, pharmaceutical compositions thereof and methods for preparation and use thereof” (Universal Technology Alliance, Inc., priority 2009, dated 2014).

Experiments:
[1] = test system: S. epidermidis MSSE; test: Minimum inhibitory concentration (MIC) in vitro, agar dilution method; format: cell-based; conditions: hydrate; for MIC50 / MIC90 / MICrange: S. ep MSSE (10 strains), clinically isolated
Method in brief: (§1)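 MIC50, MIC90 and MIC range were compiled from per-strain MICs obtained by the agar dilution method recommended by CLSI/NCCLS, using clinically isolated strains from Sichuan and Beijing.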

[2] = test system: E. feacalis; test: as above; format: cell-based; conditions: hydrate; for MIC50 / MIC90 / MICrange: E. feacalis (5 strains), clinically isolated
Method in brief: as §1

[3] = test system: Staphylococcus aureus MSSA; test: as above; format: cell-based; conditions: hydrate; for MIC50 / MIC90 / MICrange: S. MSSA (11 strains), clinically isolated
Method in brief: as §1

[4] = test system: E. feacium; test: as above; format: cell-based; conditions: hydrate; for MIC50 / MIC90 / MICrange: E. feacium (5 strains), clinically isolated
Method in brief: as §1

[5] = test system: Staphylococcus aureus MRSA; test: as above; format: cell-based; conditions: hydrate; for MIC50 / MIC90 / MICrange: S. MRSA (10 strains), clinically isolated
Method in brief: as §1

[6] = test system: S. epidermidis MRSE; test: as above; format: cell-based; conditions: hydrate; for MIC50 / MIC90 / MICrange: S. ep MRSE (10 strains), clinically isolated
Method in brief: as §1

[7] = Solubility in different solvents according to Chinese Pharmacopeia (2005 edition); format: physicochemical; conditions: for Solubility compared with the anhydride: different solvents; for Result: at the given solute:solvent ratio
Experimental: The solubility of the (S)—[N-3-(3′-fluoro-4′-(4″-phenylpiperazinyl))phenyl-2-oxo-5-oxazolelidinyl]methylacetamide hydrates was tested with different solvents, and the test results are shown in Tables 15-19. The solubility was measured according to Chinese Pharmacopeia (2005 edition).

[8] = test system: Staphylococcus aureus; test: Minimum inhibitory concentration (MIC) in vitro, agar dilution method, quality control strain; format: cell-based; conditions: strain S. AT C C25923 (Table 7 No. 1); hydrate
Method in brief: as §1

[9] = strain S. ep MSSE87 (Table 7 No. 23)
[10] = strain S. ep MSSE88 (Table 8 No. 5)
[11] = strain S. ep MSSE113 (Table 7 No. 24)
[12] = strain S. ep MSSE116 (Table 7 No. 25)
[13] = strain S. ep MSSE118 (Table 8 No. 2)
[14] = strain S. ep MSSE119 (Table 7 No. 27)
[15] = strain S. ep MSSE137 (Table 8 No. 4)
[16] = strain S. ep MSSE140 (Table 8 No. 3)
[17] = strain S. ep MSSE142 (Table 7 No. 26)
[18] = strain S. ep MSSE153 (Table 8 No. 1)
[19] = strain Efa 116 (Table 8 No. 16)
[20] = strain Efa 907 (Table 8 No. 19)
[21] = strain Efa 3006 (Table 8 No. 18)
[22] = strain Efa 33748 (Table 8 No. 17)
[23] = strain S. MSSA 123 (Table 7 No. 3)
[24] = strain S. MSSA 187 (Table 7 No. 7)
[25] = strain S. MSSA 195 (Table 7 No. 6)
[26] = strain S. MSSA 195 (Table 7 No. 12)
[27] = strain S. MSSA 201 (Table 7 No. 11)
[28] = strain S. MSSA 232 (Table 7 No. 2)
[29] = strain S. MSSA 275 (Table 7 No. 10)
[30] = strain S. MSSA 466 (Table 7 No. 8)
[31] = strain S. MSSA 519 (Table 7 No. 9)
[32] = strain S. MSSA 520 (Table 7 No. 4)
[33] = strain S. MSSA 580 (Table 7 No. 5)
[34] = strain Efm 171 (Table 8 No. 25)
[35] = strain Efm 197 (Table 8 No. 22)
[36] = strain S. MRSA 29 (Table 7 No. 15)
[37] = strain S. MRSA 101 (Table 7 No. 14)
[38] = strain S. MRSA 201 (Table 7 No. 13)
[39] = strain S. MRSA B27 (Table 7 No. 21)
[40] = strain S. MRSA B105 (Table 7 No. 17)
[41] = strain S. MRSA B143 (Table 7 No. 19)
[42] = strain S. MRSA B151 (Table 7 No. 20)
[43] = strain S. MRSA B164 (Table 7 No. 16)
[44] = strain S. MRSA B199 (Table 7 No. 22)
[45] = strain S. MRSA B617 (Table 7 No. 18)
[46] = strain S. ep MRSE4 (Table 8 No. 9)
[47] = strain S. ep MRSE20 (Table 8 No. 6)
[48] = strain S. ep MRSE87 (Table 8 No. 13)
[49] = strain S. ep MRSE90 (Table 8 No. 10)
[50] = strain S. ep MRSE101 (Table 8 No. 7)
[51] = strain S. ep MRSE105 (Table 8 No. 11)
[52] = strain S. ep MRSE140 (Table 8 No. 14)
[53] = strain S. ep MRSE142 (Table 8 No. 12)
[54] = strain S. ep MRSE210 (Table 8 No. 15)
[55] = strain S. ep MRSE211 (Table 8 No. 8)

CC(=O)NC[C@H]1CN(c2ccc(N3CCN(c4ccccc4)CC3)c(F)c2)C(=O)O1 [2/7 hydrate, (S)—[N-3-(3′-fluoro-4′-(4″-phenylpiperazinyl))phenyl-2-oxo-5-oxazolidinyl]methyl acetamide 2/7 hydrate]
MIC50 [1]: 0.5 µg/mL | MIC90 [1]: 0.5 µg/mL | MICrange [1]: 0.25 to 0.5 µg/mL | MIC [1, 9]: 0.125 µg/mL | MIC [1, 10]: 0.5 µg/mL | MIC [1, 11]: 0.25 µg/mL | MIC [1, 12]: 0.25 µg/mL | MIC [1, 13]: 0.5 µg/mL | MIC [1, 14]: 0.25 µg/mL | MIC [1, 15]: 0.5 µg/mL | MIC [1, 16]: 0.5 µg/mL | MIC [1, 17]: 0.5 µg/mL | MIC [1, 18]: 0.5 µg/mL | MIC50 [2]: 0.25 µg/mL | MIC90 [2]: 0.5 µg/mL | MICrange [2]: 0.125 to 0.5 µg/mL | MIC [2, 19]: 0.5 µg/mL | MIC [2, 20]: 0.25 µg/mL | MIC [2, 21]: 0.25 µg/mL | MIC [2, 22]: 0.5 µg/mL | MIC50 [3]: 0.5 µg/mL | MIC90 [3]: 0.5 µg/mL | MICrange [3]: 0.5 to 1 µg/mL | MIC [3, 23]: 0.5 µg/mL | MIC [3, 24]: 0.5 µg/mL | MIC [3, 25]: 1 µg/mL | MIC [3, 26]: 0.5 µg/mL | MIC [3, 27]: 0.5 µg/mL | MIC [3, 28]: 0.5 µg/mL | MIC [3, 29]: 0.5 µg/mL | MIC [3, 30]: 0.5 µg/mL | MIC [3, 31]: 0.5 µg/mL | MIC [3, 32]: 0.25 µg/mL | MIC [3, 33]: 0.25 µg/mL | MIC50 [4]: 1 µg/mL | MIC90 [4]: 1 µg/mL | MICrange [4]: 0.5 to 1 µg/mL | MIC ([4]; strain Efm 98 (Table 8 No. 21)): 0.5 µg/mL | MIC [4, 34]: 1 µg/mL | MIC [4, 35]: 0.5 µg/mL | MIC ([4]; strain Efm N3 (Table 8 No. 23)): 1 µg/mL | MIC ([4]; strain Efm N4 (Table 8 No. 24)): 1 µg/mL | MIC50 [5]: 0.5 µg/mL | MIC90 [5]: 0.5 µg/mL | MICrange [5]: 0.5 to 1 µg/mL | MIC [5, 36]: 0.5 µg/mL | MIC [5, 37]: 1 µg/mL | MIC [5, 38]: 0.5 µg/mL | MIC [5, 39]: 0.5 µg/mL | MIC [5, 40]: 0.5 µg/mL | MIC [5, 41]: 0.5 µg/mL | MIC [5, 42]: 0.5 µg/mL | MIC [5, 43]: 0.5 µg/mL | MIC [5, 44]: 0.5 µg/mL | MIC [5, 45]: 0.5 µg/mL | MIC50 [6]: 0.5 µg/mL | MIC90 [6]: 0.5 µg/mL | MICrange [6]: 0.25 to 0.5 µg/mL | MIC [6, 46]: 0.25 µg/mL | MIC [6, 47]: 0.5 µg/mL | MIC [6, 48]: 0.5 µg/mL | MIC [6, 49]: 0.5 µg/mL | MIC [6, 50]: 0.25 µg/mL | MIC [6, 51]: 0.5 µg/mL | MIC [6, 52]: 0.5 µg/mL | MIC [6, 53]: 0.5 µg/mL | MIC [6, 54]: 0.5 µg/mL | MIC [6, 55]: 0.5 µg/mL | Solubility compared with the anhydride [7]: sometimes more soluble than the anhydride | Result ([7]; solvent 0.1N Hydrochloric acid): Dissolved | Result ([7]; solvent 0.1N Sodium hydroxide): Insoluble | Result ([7]; solvent Acetonitrile): Dissolved | Result ([7]; solvent Ethanol): Dissolved | Result ([7]; solvent Methanol): Dissolved | Result ([7]; solvent Water, hydrate): Dissolved | MIC [8]: 0.5 µg/mL

CC(=O)NC[C@H]1CN(c2ccc(N3CCN(c4ccccc4)CC3)c(F)c2)C(=O)O1 [3/4 hydrate, (S)—[N-3-(3′-fluoro-4′-(4″-phenylpiperazinyl))phenyl-2-oxo-5-oxazolidinyl]methyl acetamide 3/4 hydrate]
MIC50 [1]: 0.5 µg/mL | MIC90 [1]: 1 µg/mL | MICrange [1]: 0.5 to 1 µg/mL | MIC [1, 9]: 0.5 µg/mL | MIC [1, 10]: 1 µg/mL | MIC [1, 11]: 0.5 µg/mL | MIC [1, 12]: 0.5 µg/mL | MIC [1, 13]: 0.5 µg/mL | MIC [1, 14]: 1 µg/mL | MIC [1, 15]: 1 µg/mL | MIC [1, 16]: 0.5 µg/mL | MIC [1, 17]: 1 µg/mL | MIC [1, 18]: 1 µg/mL | MIC50 [2]: 2 µg/mL | MIC90 [2]: 4 µg/mL | MICrange [2]: 1 to 4 µg/mL | MIC ([2]; strain Efa 54 (Table 8 No. 20)): 2 µg/mL | MIC [2, 19]: 2 µg/mL | MIC [2, 20]: 1 µg/mL | MIC [2, 21]: 2 µg/mL | MIC [2, 22]: 4 µg/mL | MIC50 [3]: 1 µg/mL | MIC90 [3]: 1 µg/mL | MICrange [3]: 0.5 to 1 µg/mL | MIC [3, 23]: 1 µg/mL | MIC [3, 24]: 1 µg/mL | MIC [3, 25]: 1 µg/mL | MIC [3, 26]: 1 µg/mL | MIC [3, 27]: 0.5 µg/mL | MIC [3, 28]: 1 µg/mL | MIC [3, 29]: 0.5 µg/mL | MIC [3, 30]: 0.5 µg/mL | MIC [3, 31]: 1 µg/mL | MIC [3, 32]: 1 µg/mL | MIC [3, 33]: 1 µg/mL | MIC50 [4]: 2 µg/mL | MIC90 [4]: 4 µg/mL | MICrange [4]: 1 to 4 µg/mL | MIC ([4]; strain Efm 98 (Table 8 No. 21)): 2 µg/mL | MIC [4, 34]: 2 µg/mL | MIC [4, 35]: 1 µg/mL | MIC ([4]; strain Efm N3 (Table 8 No. 23)): 4 µg/mL | MIC ([4]; strain Efm N4 (Table 8 No. 24)): 4 µg/mL | MIC50 [5]: 1 µg/mL | MIC90 [5]: 1 µg/mL | MICrange [5]: 0.5 to 1 µg/mL | MIC [5, 36]: 0.5 µg/mL | MIC [5, 37]: 1 µg/mL | MIC [5, 38]: 1 µg/mL | MIC [5, 39]: 0.5 µg/mL | MIC [5, 40]: 1 µg/mL | MIC [5, 41]: 1 µg/mL | MIC [5, 42]: 1 µg/mL | MIC [5, 43]: 1 µg/mL | MIC [5, 44]: 0.5 µg/mL | MIC [5, 45]: 1 µg/mL | MIC50 [6]: 1 µg/mL | MIC90 [6]: 1 µg/mL | MICrange [6]: 1 µg/mL | MIC [6, 46]: 1 µg/mL | MIC [6, 47]: 1 µg/mL | MIC [6, 48]: 1 µg/mL | MIC [6, 49]: 1 µg/mL | MIC [6, 50]: 1 µg/mL | MIC [6, 51]: 1 µg/mL | MIC [6, 52]: 1 µg/mL | MIC [6, 53]: 1 µg/mL | MIC [6, 54]: 1 µg/mL | MIC [6, 55]: 1 µg/mL | Solubility compared with the anhydride [7]: sometimes more soluble than the anhydride | Result ([7]; solvent 0.1N Hydrochloric acid): Dissolved | Result ([7]; solvent 0.1N Sodium hydroxide): Insoluble | Result ([7]; solvent Acetonitrile): Dissolved | Result ([7]; solvent Ethanol): Dissolved | Result ([7]; solvent Methanol): Dissolved | Result ([7]; solvent Water, listed as ¾ hydrate, hydrate): Dissolved | MIC [8]: 1 µg/mL
